From PubChem BioAssay AID651807 (Broad Institute, 2012)
Where “and” joins values, the source holds several entries; their conditions need not be identical. Identical values can stand only once. Results filed as inconclusive are left out. Calls of active or inactive are those of the source.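 How the source made its calls: active means fitted curve rises past 40% activation at or below the top valid concentration, in every replicate test; inconclusive means replicate tests give mixed outcomes; inactive means all replicate tests inactive, or signal moves in the opposite direction.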

Columns and labels:
[1] = ARE-bla reporter activation in HepG2 – cell-based, beta-lactamase, dry powder, set 4, Keap1-Nrf2 interaction inhibitor project, dose response (AID 651807); settings: ARE-bla HepG2, beta-lactamase FRET ratio 460/530
[2] = tested on: ARE-bla HepG2, beta-lactamase FRET ratio 460/530; assay: as above

| SMILES | activation ([1]; at 68 µM (top of the series)) | AC40 [2] [µM] | further results |
| --- | --- | --- | --- |
| O=C(O)C1CCCCC1C(=O)N1CCc2ccccc2C1CN1C(=O)c2ccccc2S1(=O)=O (stereo not drawn) | 35% (inactive) |  |  |
| O=C(NC[C@@H]1c2ccccc2CCN1C(=O)[C@@H]1CCCC[C@@H]1C(=O)O)OCC1c2ccccc2-c2ccccc21 | -31.2% (inactive) |  |  |
| Cc1cc(C)c(S(=O)(=O)Nc2cc(C(C(=O)OCc3ccccc3)C(=O)OCc3ccccc3)c(O)c3ccccc23)c(C)c1 |  | 32.7 |  |
| O=C1c2ccccc2C(=O)N1C[C@H]1NCCc2ccccc21 | 43.8% (inactive) |  |  |
| COc1ccccc1CCNC(=O)[C@@H]1c2ccccc2CCN1C(=O)C1CCCCC1C(=O)O (stereo partly drawn) | -0.279% (inactive) |  |  |
| O=C(O)CC(=O)N1CCc2ccccc2C1CN1C(=O)c2ccccc2C1=O (stereo not drawn) | 31.6% (inactive) |  |  |
| O=S(=O)(Nc1nc(NCC2CCCCC2)nc2ccccc12)c1ccccc1 |  | 32.2 |  |
| O=C(NC[C@@H]1c2ccccc2CCN1C(=O)[C@@H]1CCCC[C@@H]1C(=O)O)c1ccccc1 | 6.57% (inactive) |  |  |
| O=C(NCCc1ccccc1)c1ccccc1C(=O)NC[C@@H]1c2ccccc2CCN1C(=O)C1CCCCC1C(=O)O (stereo partly drawn) |  | 17 |  |
| O=C(O)C1CCCCC1C(=O)N1CCc2ccccc2[C@H]1C(=O)NCCc1ccccc1 (stereo partly drawn) | 2.65% (inactive) |  |  |
| COC(=O)[C@@H]1CCCC[C@@H]1C(=O)N1CCc2ccccc2[C@H]1CN1C(=O)c2ccccc2C1=O | 25.5% (inactive) |  |  |
| O=C(O)c1ccccc1C(=O)N1CCc2ccccc2C1CN1C(=O)c2ccccc2C1=O (stereo not drawn) |  | 41.3 |  |
| O=C(O)C1CCCCC1C(=O)NCC1c2ccccc2CCN1C(=O)Cc1ccccc1 (stereo not drawn) | 20.2% (inactive) |  |  |
| O=C1c2ccccc2C(=O)N1CC1c2ccccc2CCN1C(=O)Cc1ccccc1 (stereo not drawn) |  |  | activation ([1]; at 16 µM (top of the series)): 14.7% (inactive) |
| O=C1c2ccccc2C(=O)N1C[C@@H]1c2ccccc2CCN1C(=O)OCc1ccccc1 |  | 38.2 |  |
| Cc1ccc(S(=O)(=O)NNc2nc(N3CC(O)CC3C(=O)O)nc3ccccc23)cc1 (stereo not drawn) |  | 13.5 |  |
| Cc1cc(C)c(S(=O)(=O)Nc2nc(C(C(=O)OC(C)C)C(=O)C(F)(F)F)nc3ccccc23)c(C)c1 (stereo not drawn) |  | 27.3 |  |
| O=C(O)C1CCCCC1C(=O)N1CCc2ccccc2[C@H]1C(=O)NC12CC3CC(CC(C3)C1)C2 (stereo partly drawn) |  | 45.6 |  |
| O=C(O)[C@@H]1CCCN1C(=O)N1CCc2ccccc2[C@H]1CN1C(=O)c2ccccc2C1=O | 27% (inactive) |  |  |
| O=C(O)[C@H]1CCCC[C@H]1C(=O)NC(CN1C(=O)c2ccccc2C1=O)c1ccccc1 (stereo partly drawn) | 25.2% (inactive) |  |  |
| Cc1cc(C)c(S(=O)(=O)Nc2nc(N(C)C)nc3ccccc23)c(C)c1 | -5.99% (inactive) |  |  |
| O=C(O)[C@H]1CCCC[C@H]1C(=O)N1CCc2ccccc2[C@H]1CNc1nc(Cl)nc2ccccc12 | -4.32% (inactive) |  |  |

| SMILES | activation ([1]; at 68 µM (top of the series)) | AC40 [2] [µM] | further results |
| --- | --- | --- | --- |
| COC(=O)CNc1nc(NS(=O)(=O)c2c(C)cc(C)cc2C)c2ccccc2n1 | -4.15% (inactive) |  |  |
| COc1ccc(CCN=C2C=C(NS(=O)(=O)c3c(C)cc(C)cc3C)c3ccccc3C2=O)cc1 |  | 10.6 |  |
| O=C(O)C1CCCCC1C(=O)N1CCCCC1CN1C(=O)c2ccccc2C1=O (stereo not drawn) | 16.6% (inactive) |  |  |
| Cc1cc(C)c(S(=O)(=O)Nc2nc(NCCO)nc3ccccc23)c(C)c1 | -10.1% (inactive) |  |  |
| CC(C)OC(=O)C(C(=O)C(F)(F)F)c1cc(NS(=O)(=O)c2ccccc2)c2ccccc2c1O (stereo not drawn) |  | 27.2 |  |
| O=C(O)c1ccccc1C(=O)NC[C@@H]1c2ccccc2CCN1C(=O)[C@@H]1CCCC[C@@H]1C(=O)O | 23.5% (inactive) |  |  |
| Cc1ccc(S(=O)(=O)Nc2cc(C(C(=O)OC(C)C)C(=O)C(F)(F)F)c(O)c3ccccc23)c(C)c1 (stereo not drawn) |  | 10.5 |  |
| Cc1ccc(S(=O)(=O)Nc2cc(C(C(=O)OC(C)C)C(=O)C(F)(F)F)c(O)c3ccccc23)cc1 (stereo not drawn) |  | 9.52 |  |
| Cc1ccc(S(=O)(=O)NNc2nc(C(C(=O)OC(C)C)C(=O)C(F)(F)F)nc3ccccc23)cc1 (stereo not drawn) |  | 33 |  |
| O=C(O)C1CCCCC1C(=O)Nc1ccccc1CN1C(=O)c2ccccc2C1=O (stereo not drawn) | 6.93% (inactive) |  |  |
| O=C(NC[C@@H]1c2ccccc2CCN1C(=O)[C@@H]1CCCC[C@@H]1C(=O)O)c1ccc(CN2CCOCC2)cc1 | 13.2% (inactive) |  |  |
| Cc1ccc(S(=O)(=O)NC(=O)[C@@H]2c3ccccc3CCN2C(=O)[C@@H]2CCCC[C@@H]2C(=O)O)cc1 | 13.2% (inactive) and 28.7% (inactive) |  |  |
| Cc1ccccc1S(=O)(=O)Nc1cc(C(C(=O)OC(C)C)C(=O)C(F)(F)F)c(O)c2ccccc12 (stereo not drawn) |  | 8.84 |  |
| O=C(NC[C@@H]1c2ccccc2CCN1C(=O)[C@@H]1CCCC[C@@H]1C(=O)O)c1ccccc1CO | 11% (inactive) |  |  |
| O=C1c2ccccc2C(=O)N1CC1=NCCc2ccccc21 | 9.14% (inactive) |  |  |
| O=C(O)[C@H]1CCCC[C@H]1C(=O)N1CCc2ccccc2C1CCN1C(=O)c2ccccc2C1=O (stereo partly drawn) | 17.3% (inactive) |  |  |
| O=C(O)C1CCCCC1C(=O)N1CCc2ccccc2C1CN1C(=O)[C@H]2CCCC[C@H]2C1=O (stereo partly drawn) |  | 29.1 |  |
| O=C(Cc1ccccc1)NC[C@@H]1c2ccccc2CCN1C(=O)[C@@H]1CCCC[C@@H]1C(=O)O | 6.95% (inactive) |  |  |
| NC(=O)c1ccccc1C(=O)NC[C@@H]1c2ccccc2CCN1C(=O)[C@@H]1CCCC[C@@H]1C(=O)O |  | 48.7 |  |
| Cc1cc(C)c(S(=O)(=O)Nc2cc(C(C(=O)OC(C)C)C(=O)C(F)(F)F)c(O)c3ccccc23)c(C)c1 (stereo not drawn) |  | 4.2 |  |
| Cc1ccc(S(=O)(=O)NC[C@@H]2c3ccccc3CCN2C(=O)[C@@H]2CCCC[C@@H]2C(=O)O)c(C)c1 | 29.9% (inactive) |  |  |
